According to US20020137929A1, “1 - (3-heterocyclylphenyl) isothiourea, -isourea, -guanidine and -amidine herbicidal agents” (Intellectual Property Department, BASF Aktiengesellschaft, priority 1998, published 2002):

Assays:
[1] = test system: ABUTH (Velvetleaf); test: Postemergence herbicidal evaluation; type: in vivo, Abutilon theophrasti; conditions: postemergence
Procedure, shortened: (§1)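 Each compound, dispersed in an acetone/water mix (50/50) carrying 0.5% TWEEN 20, is nozzle-sprayed at 40 psi on approximately two-week-old seedlings at about 0.0156–0.500 kg/ha. Plants are assessed 4–5 weeks afterward on a 0–9 scale relative to control; duplicate tests are averaged.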

[2] = test system: AMBEL (Ragweed, Common); test: Postemergence herbicidal evaluation; type: in vivo, Ambrosia artemisifolia; conditions: postemergence
Procedure, shortened: as §1

[3] = test system: IPOHE (Morningglory, Ivyleaf); test: Postemergence herbicidal evaluation; type: in vivo, Ipomoea hederacea; conditions: postemergence
Procedure, shortened: as §1

[4] = test system: ECHCG (Barnyardgrass); test: Postemergence herbicidal evaluation; type: in vivo, Echinochloa crus-galli; conditions: postemergence
Procedure, shortened: as §1

[5] = test system: SETVI (Foxtail, Green); test: Postemergence herbicidal evaluation; type: in vivo, Setaria viridis; conditions: postemergence
Procedure, shortened: as §1

[6] = test system: GLXMAW (Soybean, Williams); test: Postemergence herbicidal evaluation; type: in vivo, Glycine max, (L.) Merr. cv Williams; conditions: postemergence
Procedure, shortened: as §1

[7] = test system: TRZAWR (Wheat, Winter, cv Riband); test: Postemergence herbicidal evaluation; type: in vivo, Triticum aestivum; conditions: postemergence
Procedure, shortened: as §1

[8] = test system: CASOB (Sicklepod); test: Preemergence herbicidal evaluation; type: in vivo, Cassia obtusifolia; conditions: rated 4-5 weeks after treatment
Procedure, shortened: (§2)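 Steps: mix seeds into potting soil; plant atop ~1 inch soil; spray compound in aqueous acetone (~0.0156-0.500 kg/ha equivalent); maintain in greenhouse with watering; rate visually 0-9 versus control at 4-5 weeks.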

[9] = test system: CHEAL (Lambsquarters, Common); test: Preemergence herbicidal evaluation; type: in vivo, Chenopodium album; conditions: rated 4-5 weeks after treatment
Procedure, shortened: as §2

[10] = test system: GALAP (Galium); test: Preemergence herbicidal evaluation; type: in vivo, Galium aparine; conditions: rated 4-5 weeks after treatment
Procedure, shortened: as §2

[11] = test system: IPOHE (Morningglory, Ivyleaf); test: Preemergence herbicidal evaluation; type: in vivo, Ipomoea hederacea; conditions: rated 4-5 weeks after treatment
Procedure, shortened: as §2

[12] = test system: ECHCG (Barnyardgrass); test: Preemergence herbicidal evaluation; type: in vivo, Echinochloa crus-galli; conditions: rated 4-5 weeks after treatment
Procedure, shortened: as §2

[13] = test system: ZEAMX (Corn, Field); test: Preemergence herbicidal evaluation; type: in vivo, Zea mays; conditions: rated 4-5 weeks after treatment
Procedure, shortened: as §2

[14] = test system: ECHORC (Watergrass (Calif.)); test: Postemergence weed control under flooded paddy conditions; type: in vivo, Echinochloa oryzoides; conditions: postemergence weeds, rated 3 to 4 weeks after treatment
Procedure, shortened: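 Herbicidal effect is judged by eye on a 0–9 scale versus control, 3–4 weeks after dosing. Dosing is into flood water kept 1.5–3 cm over the soil, at about 0.0313–0.500 kg/ha in aqueous/acetone 50/50 v/v, on 3–5 cm weeds and 1.5–2.5-leaf rice seedlings.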

Cn1c(C(F)(F)F)cc(=O)n(-c2cc(N=C3SCC(=O)N3CC(=O)OCC#N)c(Cl)cc2F)c1=O [Compound 109, 2-{{2-Chloro-5-[3,6-dihydro-3-methyl-2,6-dioxo-4-(trifluoromethyl)-1(2H)-pyrimidinyl]-4-fluorophenyl}imino}-4-oxo-3-thiazolidineacetic acid, ester with glycolonitrile]
herbicidal rating ABUTH ([1]; rate 0.0158 kg/ha): 9.0 | herbicidal rating ABUTH ([1]; rate 0.0315 kg/ha): 9.0 | herbicidal rating ABUTH ([1]; rate 0.0630 kg/ha): 9.0 | herbicidal rating AMBEL ([2]; rate 0.0158 kg/ha): 9.0 | herbicidal rating AMBEL ([2]; rate 0.0315 kg/ha): 9.0 | herbicidal rating AMBEL ([2]; rate 0.0630 kg/ha): 9.0 | herbicidal rating IPOHE ([3]; rate 0.0158 kg/ha): 9.0 | herbicidal rating IPOHE ([3]; rate 0.0315 kg/ha): 9.0 | herbicidal rating IPOHE ([3]; rate 0.0630 kg/ha): 9.0 | herbicidal rating ECHCG ([4]; rate 0.0158 kg/ha): 0.0 | herbicidal rating ECHCG ([4]; rate 0.0315 kg/ha): 3.0 | herbicidal rating ECHCG ([4]; rate 0.0630 kg/ha): 3.0 | herbicidal rating SETVI ([5]; rate 0.0158 kg/ha): 6.0 | herbicidal rating SETVI ([5]; rate 0.0315 kg/ha): 7.0 | herbicidal rating SETVI ([5]; rate 0.0630 kg/ha): 9.0 | herbicidal rating GLXMAW ([6]; rate 0.0158 kg/ha): 7.0 | herbicidal rating GLXMAW ([6]; rate 0.0315 kg/ha): 8.0 | herbicidal rating GLXMAW ([6]; rate 0.0630 kg/ha): 8.0 | herbicidal rating TRZAWR ([7]; rate 0.0158 kg/ha): 3.0 | herbicidal rating TRZAWR ([7]; rate 0.0315 kg/ha): 4.0 | herbicidal rating TRZAWR ([7]; rate 0.0630 kg/ha): 4.5 | Preemergence herbicidal rating CASOB ([8]; rate 0.0156 kg/ha): 6.5 | Preemergence herbicidal rating CASOB ([8]; rate 0.0313 kg/ha): 4.0 | Preemergence herbicidal rating CASOB ([8]; rate 0.0625 kg/ha): 5.5 | Preemergence herbicidal rating CASOB ([8]; rate 0.1250 kg/ha): 6.5 | Preemergence herbicidal rating CASOB ([8]; rate 0.2500 kg/ha): 9.0 | Preemergence herbicidal rating CASOB ([8]; rate 0.5000 kg/ha): 9.0 | Preemergence herbicidal rating CHEAL ([9]; rate 0.0156 kg/ha): 9.0 | Preemergence herbicidal rating CHEAL ([9]; rate 0.0313 kg/ha): 9.0 | Preemergence herbicidal rating CHEAL ([9]; rate 0.0625 kg/ha): 9.0 | Preemergence herbicidal rating CHEAL ([9]; rate 0.1250 kg/ha): 9.0 | Preemergence herbicidal rating CHEAL ([9]; rate 0.2500 kg/ha): 9.0 | Preemergence herbicidal rating CHEAL ([9]; rate 0.5000 kg/ha): 9.0 | Preemergence herbicidal rating GALAP ([10]; rate 0.0156 kg/ha): 3.0 | Preemergence herbicidal rating GALAP ([10]; rate 0.0313 kg/ha): 3.0 | Preemergence herbicidal rating GALAP ([10]; rate 0.0625 kg/ha): 3.0 | Preemergence herbicidal rating GALAP ([10]; rate 0.1250 kg/ha): 4.0 | Preemergence herbicidal rating GALAP ([10]; rate 0.2500 kg/ha): 4.0 | Preemergence herbicidal rating IPOHE ([11]; rate 0.0156 kg/ha): 2.0 | Preemergence herbicidal rating IPOHE ([11]; rate 0.0313 kg/ha): 2.0 | Preemergence herbicidal rating IPOHE ([11]; rate 0.0625 kg/ha): 5.0 | Preemergence herbicidal rating IPOHE ([11]; rate 0.1250 kg/ha): 8.0 | Preemergence herbicidal rating IPOHE ([11]; rate 0.2500 kg/ha): 8.0 | Preemergence herbicidal rating IPOHE ([11]; rate 0.5000 kg/ha): 9.0 | Preemergence herbicidal rating ECHCG ([12]; rate 0.0156 kg/ha): 1.5 | Preemergence herbicidal rating ECHCG ([12]; rate 0.0313 kg/ha): 2.5 | Preemergence herbicidal rating ECHCG ([12]; rate 0.0625 kg/ha): 4.0 | Preemergence herbicidal rating ECHCG ([12]; rate 0.1250 kg/ha): 7.0 | Preemergence herbicidal rating ECHCG ([12]; rate 0.2500 kg/ha): 8.5 | Preemergence herbicidal rating ECHCG ([12]; rate 0.5000 kg/ha): 9.0 | Preemergence herbicidal rating ZEAMX ([13]; rate 0.0156 kg/ha): 3.0 | Preemergence herbicidal rating ZEAMX ([13]; rate 0.0313 kg/ha): 3.5 | Preemergence herbicidal rating ZEAMX ([13]; rate 0.0625 kg/ha): 4.0 | Preemergence herbicidal rating ZEAMX ([13]; rate 0.1250 kg/ha): 6.0 | Preemergence herbicidal rating ZEAMX ([13]; rate 0.2500 kg/ha): 6.5 | Preemergence herbicidal rating ZEAMX ([13]; rate 0.5000 kg/ha): 7.0 | Herbicidal rating ECHORC ([14]; Rate 0.0313 kg/ha): 2.0 | Herbicidal rating ECHORC ([14]; Rate 0.0625 kg/ha): 2.0 | Herbicidal rating ECHORC ([14]; Rate 0.1250 kg/ha): 7.0 | Herbicidal rating ECHORC ([14]; Rate 0.2500 kg/ha): 9.0
